Measurements taken from patent US20230227466A1, “SUBSTITUTED THIENOPYRIMIDINES THAT INTERACT WITH THE RAS SUPERFAMILY FOR THE TREATMENT OF CANCERS, INFLAMMATORY DISEASES, RASOPATHIES, AND FIBROTIC DISEASE” (SHY Therapeutics, LLC, priority 2020, published 2023).

Legend:
[1] = test system: ERK1/2 phosphorylation in Panc-1 cells; assay: Western ERK1/2 cell-based phosphorylation assay; parameters: species or system human; conditions: at 10 μM, values in brackets < > are activation %, not inhibition
Outline: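 Western blot with anti-phospho-p44/42 (Thr202/Tyr204) measured ERK1/2 phosphorylation after 15 min EGF (1.5 ng/ml) stimulation. Beforehand, serum-starved (0.5% FBS, overnight) Panc-1 cells received compounds for 6 h at 37 °C, at 10 μM final in 0.3% DMSO or as dilution series for IC50.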

[2] = test system: PANC-1 pancreatic cancer cell line (KRAS G12D); assay: Cell proliferation assay (CellTiter 96 Aqueous One); type: cell-based; conditions: Homo sapiens; PANC-1, 2-4 days, 10% FBS
Outline: (§1)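 Read-out is MTS-based viability (CellTiter 96 Aqueous One) after 2–4 days of compound exposure at 37 °C in 10% FBS with 0.3% DMSO.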

[3] = test system: SW-620 colorectal cancer cell line (KRAS G12V); assay: as above; type: cell-based; conditions: Homo sapiens; SW-620, 2-4 days, 10% FBS
Outline: as §1

## CO[C@H]1CC[C@@H](Nc2nc(-c3nccn3C)nc3sc(-c4cn(C)cn4)c(-c4ccccc4)c23)C1 (racemic) [Example 3, Rac-N-((1R,3S)-3-methoxycyclopentyl)-2-(1-methyl-1H-imidazol-2-yl)-6-(1-methyl-1H-imidazol-4-yl)-5-phenylthieno[2,3-d]pyrimidin-4-amine]
[1]
  % inh of ERK1/2 phosphorylation in PANC-1: A (1-25% inhibition)

## COc1ccn2c(-c3nc(O)c4scc(-c5ccccn5)c4n3)ncc2c1 [Compound 85, 2-(7-Methoxyimidazo[1,5-a]pyridin-3-yl)-7-(pyridin-2-yl)thieno[3,2-d]pyrimidin-4-ol]
[1]
  % inh of ERK1/2 phosphorylation in PANC-1: 0 (0% inhibition)

## COc1ccc2cnc(-c3nc(O)c4scc(-c5ccccn5)c4n3)n2c1 [Compound 86, 2-(6-Methoxyimidazo[1,5-a]pyridin-3-yl)-7-(pyridin-2-yl)thieno[3,2-d]pyrimidin-4-ol]
[1]
  % inh of ERK1/2 phosphorylation in PANC-1: 0 (0% inhibition)

## COCCn1c(-c2nc(O)c3scc(-c4ccccn4)c3n2)nc2ccccc21 [Compound 87, 2-(1-(2-Methoxyethyl)-1H-benzo[d]imidazol-2-yl)-7-(pyridin-2-yl)thieno[3,2-d]pyrimidin-4-ol]
[1]
  % inh of ERK1/2 phosphorylation in PANC-1: A (1-25% inhibition)
[2]
  IC50: < 0.4 µM
[3]
  IC50: < 0.4 µM

## Oc1nc(-c2ccncn2)nc2c(-c3ccccn3)csc12 [Compound 88, 7-(Pyridin-2-yl)-2-(pyrimidin-4-yl)thieno[3,2-d]pyrimidin-4-ol]
[1]
  % inh of ERK1/2 phosphorylation in PANC-1: <B>

## Oc1nc(-c2cccnc2)nc2c(-c3ccccn3)csc12 [Compound 89, 7-(Pyridin-2-yl)-2-(pyridin-3-yl)thieno[3,2-d]pyrimidin-4-ol]
[1]
  % inh of ERK1/2 phosphorylation in PANC-1: A (1-25% inhibition)

## Cn1ccc(-c2nc(O)c3scc(-c4ccccn4)c3n2)n1 [Compound 90, 2-(1-Methyl-1H-pyrazol-3-yl)-7-(pyridin-2-yl)thieno[3,2-d]pyrimidin-4-ol]
[1]
  % inh of ERK1/2 phosphorylation in PANC-1: 0 (0% inhibition)

## Cn1nccc1-c1nc(O)c2scc(-c3ccccn3)c2n1 [Compound 91, 2-(1-Methyl-1H-pyrazol-5-yl)-7-(pyridin-2-yl)thieno[3,2-d]pyrimidin-4-ol]
[1]
  % inh of ERK1/2 phosphorylation in PANC-1: 0 (0% inhibition)

## Cc1cnc(-c2nc(O)c3scc(-c4ccccn4)c3n2)s1 [Compound 92, 2-(5-Methylthiazol-2-yl)-7-(pyridin-2-yl)thieno[3,2-d]pyrimidin-4-ol]
[1]
  % inh of ERK1/2 phosphorylation in PANC-1: 0 (0% inhibition)

## COCCn1ccnc1-c1nc(O)c2scc(-c3ccncc3)c2n1 [Compound 94, 2-(1-(2-Methoxyethyl)-1H-imidazol-2-yl)-7-(pyridin-4-yl)thieno[3,2-d]pyrimidin-4-ol]
[1]
  % inh of ERK1/2 phosphorylation in PANC-1: 0 (0% inhibition)

## COc1nc(-c2nccn2C)nc2c(-c3ncccc3F)csc12 [Compound 95, 7-(3-Fluoropyridin-2-yl)-4-methoxy-2-(1-methyl-1H-imidazol-2-yl)thieno[3,2-d]pyrimidine]
[1]
  % inh of ERK1/2 phosphorylation in PANC-1: 0 (0% inhibition)

## CO[C@H]1C[C@@H](Nc2nc(-c3nccn3C)nc3sc(-c4cn(C)cn4)c(-c4ccccc4)c23)C1 [Example 2, N-((1s,3s)-3-methoxycyclobutyl)-2-(1-methyl-1H-imidazol-2-yl)-6-(1-methyl-1H-imidazol-4-yl)-5-phenylthieno[2,3-d]pyrimidin-4-amine]
[1]
  % inh of ERK1/2 phosphorylation in PANC-1: C (51-75% inhibition)
